# Results as given in patent publication US11800869B2, “Use of 6-oxo-1,4,5,6-tetrahydropyridazine-3-carboxylic acid, 1-methyl 6-oxo-1,4,5,6-tetrahydropyridazine-3-carboxylic acid and 1-alkyl-6-oxo-1,4,5,6-tetrahydropyridazine-3-carboxylic acid for improving growth performance in plants” (Advanced Crop Chem LLP, priority 2020, dated 2023).
# Tested on: Winter wheat variety AWC 13
# Experiment: Wheat seed treatment, greenhouse, root biomass (Example 1)
# Assay type: in vivo
# Conditions: seed treatment 10g per 1 ton of seed; greenhouse 21° C; 30 days after planting; untreated 0.65
# Method: Wheat seeds were treated with 6-oxo-1,4,5,6 tetrahydropyridazine-3-carboxylic acid (THP) and treated plants to examine the impact on shoot and root biomass. Winter wheat variety AWC 13 seeds were treated with either 6-oxo-1,4,5,6-tetrahydropyridazine-3-carboxylic acid (THP) or 1-methyl 6-oxo-1,4,5,6 tetrahydropyridazine-3-carboxylic acid (MTHP) at an effective rate of 10g diluted in 2 L water plus 0.25% Nouryon wetter and applied to 1 ton of seed. These seed were planted in coarse river sand and grown in a greenhouse under ambient light at the greenhouse at 21° C. Plants were irrigated every other day with water containing 50% strength Hoaglands solution. Plants were assessed for emergence and biomass accumulation 30 days after planting. The plants from seeds treated with 6-oxo-1,4,5,6-tetrahydropyridizin-3-carboxylic acid or 1-methyl 6-oxo-1,4,5,6 tetrahydropyridazine-3-carboxylic acid had larger root biomasses (0.83, 0.85 g, dry weight/plant) compared with plants from untreated seeds (0.65 g dry weight/plant).
compound,measurement,value
"O=C1CCC(C(=O)O)=NN1 [THP, 6-oxo-1,4,5,6 tetrahydropyridazine-3-carboxylic acid]",root biomass,"0.83 g, dry weight/plant"
